For this assay, the target named is T1, recombinant 15-PGDH (Homo sapiens, UniProt P15428).
T1 sequence (P15428 1-266): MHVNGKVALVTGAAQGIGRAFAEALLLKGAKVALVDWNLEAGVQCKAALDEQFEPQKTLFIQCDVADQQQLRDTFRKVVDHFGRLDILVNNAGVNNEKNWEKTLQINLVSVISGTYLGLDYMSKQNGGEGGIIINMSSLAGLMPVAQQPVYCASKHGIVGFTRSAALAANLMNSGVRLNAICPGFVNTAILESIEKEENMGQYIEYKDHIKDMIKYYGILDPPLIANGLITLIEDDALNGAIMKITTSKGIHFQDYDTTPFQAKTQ
The assay can be described thus: inhibition of enzymatic activity of recombinant 15-PGDH in vitro. Conditions: recombinant human 15-PGDH. Format: biochemical. The source says:
The Recombinant 15-PGDH is human unless otherwise specified.
The term IC50 denotes the concentration at which inhibition is half-maximal. With `COCC[S+]([O-])c1sc2nc(-c3cnc4nccnc4c3)cc(C3CCC3)c2c1N` (centres unmarked) [Compound 7, 4-cyclobutyl-2-(2-methoxyethanesulfinyl)-6-{pyrido[2,3-b]pyrazin-7-yl}thieno[2,3-b]pyridin-3-amine], the IC50 is under 2.5 nM.

Consider `CC(C)c1cc(-c2cnc(NCCO)nc2)nc2sc([S@@+]([O-])C3CCC3)c(N)c12` [Compound 8], for which the IC50 was over 10 nM.

Consider `Cn1nccc1-c1cc(-c2ccc3ncncc3c2)nc2sc([S@+]([O-])C3CCC3)c(N)c12` [Compound 10, 2-[(R)-cyclobutanesulfinyl]-4-(1-methyl-1H-pyrazol-5-yl)-6-(quinazolin-6-yl)thieno[2,3-b]pyridin-3-amine], for which the IC50 was under 2.5 nM.

With `COCC[S@@+]([O-])c1sc2nc(-c3cnc4cnccn34)cc(C3CCC3)c2c1N` [Compound 11, (R)-4-cyclobutyl-6-(imidazo[1,2-a]pyrazin-3-yl)-2-((2-methoxyethyl)sulfinyl)thieno[2,3-b]pyridin-3-amine], the IC50 is under 2.5 nM.

With `Cn1nccc1-c1cc(-c2cnc3ncccc3c2)nc2sc([S+]([O-])C3CCC3)c(N)c12` (centres unmarked) [Compound 12, 2-(cyclobutanesulfinyl)-4-(1-methyl-1H-pyrazol-5-yl)-6-(1,8-naphthyridin-3-yl)thieno[2,3-b]pyridin-3-amine], the IC50 was under 2.5 nM.

On to `COCC[S@@+]([O-])c1sc2nc(-c3cnc4cnccn34)cc(-c3ccnn3C)c2c1N` [Compound 13, (R)-6-(imidazo[1,2-a]pyrazin-3-yl)-2-((2-methoxyethyl)sulfinyl)-4-(1-methyl-1H-pyrazol-5-yl)thieno[2,3-b]pyridin-3-amine], for which the IC50 is under 2.5 nM.

Consider `Cn1cc2cc(-c3cc(C4CC5(COC5)C4)c4c(N)c([S@+]([O-])C5CCC5)sc4n3)cnc2n1` [Compound 14, (R)-2-(cyclobutylsulfinyl)-6-(2-methyl-2H-pyrazolo[3,4-b]pyridin-5-yl)-4-(2-oxaspiro[3.3]heptan-6-yl)thieno[2,3-b]pyridin-3-amine], for which the IC50 was under 2.5 nM.

With `COCC[S@@+]([O-])c1sc2nc(-c3ccc4ncncc4c3)cc(-c3ccnn3C)c2c1N` [Compound 15, 2-[(R)-2-methoxyethanesulfinyl]-4-(1-methyl-1H-pyrazol-5-yl)-6-(quinazolin-6-yl)thieno[2,3-b]pyridin-3-amine], the IC50 was under 2.5 nM.

For `COCC[S@@+]([O-])c1sc2nc(-c3ccc4cncnc4c3)cc(-c3ccnn3C)c2c1N` [Compound 16, 2-[(R)-2-methoxyethanesulfinyl]-4-(1-methyl-1H-pyrazol-5-yl)-6-(quinazolin-7-yl)thieno[2,3-b]pyridin-3-amine], the 50% inhibitory concentration (IC50) is under 2.5 nM.

In the case of `CC(C)c1cc(-c2cnc(N)nc2)nc2sc([S@+]([O-])C3CCC3)c(N)c12` [Compound 20], the IC50 is under 2.5 nM.

For `CC(C)c1cc(-c2cnc(N)nc2)nc2sc([S@@+]([O-])C3CCC3)c(N)c12` [Compound 21], the IC50 is over 10 nM.

Turning to `CNc1ncc(-c2cc(C(C)C)c3c(N)c([S@+]([O-])CCOC)sc3n2)cn1` [Compound 22, 5-{3-amino-2-[(R)-2-methoxyethanesulfinyl]-4-(propan-2-yl)thieno[2,3-b]pyridin-6-yl}-N-methylpyrimidin-2-amine], the IC50 is under 2.5 nM.

Regarding `COCC[S@@+]([O-])c1sc2nc(-c3cnc4nn(C)cc4c3)cc(C(C)(C)C)c2c1N` [Compound 28, 4-tert-butyl-2-[(R)-2-methoxyethanesulfinyl]-6-{2-methyl-2H-pyrazolo[3,4-b]pyridin-5-yl}thieno[2,3-b]pyridin-3-amine], the IC50 is under 2.5 nM.

`Cn1nccc1-c1cc(-c2cnc3c(c2)CNCC3)nc2sc([S+]([O-])C3CCC3)c(N)c12` (centres unmarked) [Compound 31, 2-(cyclobutanesulfinyl)-4-(1-methyl-1H-pyrazol-5-yl)-6-(5,6,7,8-tetrahydro-1,6-naphthyridin-3-yl)thieno[2,3-b]pyridin-3-amine]: the IC50 lay within 2.5 to 10 nM.

The record behind these values is US20230192717A1, “COMPOSITIONS AND METHODS OF MODULATING SHORT-CHAIN DEHYDROGENASE ACTIVITY” (RODEO THERAPEUTICS CORPORATION, priority 2020, published 2023).
